In publication PMC12668310, “High‐Throughput Synthesis and Screening of a Cyanimide Library Identifies Selective Inhibitors of ISG15‐Specific Protease mUSP18” (Angewandte Chemie (International Ed. in English), 2025):
Like-named read-outs stand apart in the source and are kept apart here.

Molecular target: T1, mUSP18 (Mus musculus, UniProt Q9WTV6)
T1 construct: (46-368); His-tag (N); made in house
T1 sequence (Q9WTV6 46-368): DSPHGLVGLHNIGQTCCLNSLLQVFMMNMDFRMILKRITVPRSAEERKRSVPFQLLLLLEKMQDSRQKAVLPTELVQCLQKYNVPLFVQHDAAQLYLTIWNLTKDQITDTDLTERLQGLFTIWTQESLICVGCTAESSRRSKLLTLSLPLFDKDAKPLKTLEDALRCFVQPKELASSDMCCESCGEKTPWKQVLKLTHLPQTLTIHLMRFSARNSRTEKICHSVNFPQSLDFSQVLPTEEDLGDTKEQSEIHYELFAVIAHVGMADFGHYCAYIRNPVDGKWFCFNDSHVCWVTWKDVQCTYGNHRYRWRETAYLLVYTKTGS
Test: High-throughput screening, ISG15ct-RhoMP, single dose 1.25 µM
Assay type: biochemical, murine
Conditions: for inhibition at 1.25 µM: mUSP18 %inhibition

[1] = carboxylic acid (CA) building block alone, read-out: %inh CA only
[2] = carboxylic acid (CA) with coupling reagents DIC/HOBT, read-out: %inh CA + DIC/HOBT

O=C(O)c1ccc(-c2ccccn2)s1 [CA341]
inhibition at 1.25 µM [1]: 0.41%
inhibition at 1.25 µM [2]: 3.46%

O=C(O)Cc1csc(C2CC2)n1 [CA455]
inhibition at 1.25 µM [1]: 0.84%
inhibition at 1.25 µM [2]: -7.57%

CC(=O)CCCCC(=O)O [CA032]
inhibition at 1.25 µM [1]: -5.09%
inhibition at 1.25 µM [2]: -11.3%

O=C(O)c1cccnc1-n1cncn1 [CA375]
inhibition at 1.25 µM [1]: -1.76%
inhibition at 1.25 µM [2]: 7.93%

O=C(O)c1ccc(=O)n(Cc2ccccc2)n1 [CA211]
inhibition at 1.25 µM [1]: 14.5%
inhibition at 1.25 µM [2]: 0.49%

O=C(O)c1noc(-c2cccc(Cl)c2)n1 [CA169]
inhibition at 1.25 µM [1]: 8.46%
inhibition at 1.25 µM [2]: 4.42%

Cc1cc(C(=O)O)c(C2CC2)s1 [CA175]
inhibition at 1.25 µM [1]: 1.19%
inhibition at 1.25 µM [2]: 12.1%

O=C(O)c1occc1-c1ccccc1 [CA354]
inhibition at 1.25 µM [1]: 10.9%
inhibition at 1.25 µM [2]: -1.55%

Cn1cc(S(=O)(=O)N2CCCC(C(=O)O)C2)cn1 (centres unmarked) [CA198]
inhibition at 1.25 µM [1]: 0.78%
inhibition at 1.25 µM [2]: 2.3%

CC(=O)NCC(=O)O [CA002]
inhibition at 1.25 µM [1]: 0.89%
inhibition at 1.25 µM [2]: -10.9%

Cc1onc(-c2ccccn2)c1C(=O)O [CA260]
inhibition at 1.25 µM [1]: 12.1%
inhibition at 1.25 µM [2]: 1.48%

Cc1ccc(N2CCCC(C(=O)O)C2)nc1 (centres unmarked) [CA254]
inhibition at 1.25 µM [1]: -2.11%
inhibition at 1.25 µM [2]: 7.64%

O=C(O)c1ccc(-n2ccnc2)nn1 [CA176]
inhibition at 1.25 µM [1]: 15.3%
inhibition at 1.25 µM [2]: 5.42%

NS(=O)(=O)c1ccc(-c2cccc(C(F)(F)F)c2)c(C(=O)O)c1 [CA103]
inhibition at 1.25 µM [1]: 11.4%
inhibition at 1.25 µM [2]: 12.3%

CC(=O)N1CCN(S(=O)(=O)c2cccc(C(=O)O)c2)CC1 [CA418]
inhibition at 1.25 µM [1]: -5%
inhibition at 1.25 µM [2]: -2.55%

O=C(O)c1cc(S(=O)(=O)Nc2cccc(F)c2)ccc1F [CA436]
inhibition at 1.25 µM [1]: -3.43%
inhibition at 1.25 µM [2]: -0.67%

O=C(O)c1sccc1Br [CA034]
inhibition at 1.25 µM [1]: -2.15%
inhibition at 1.25 µM [2]: -14%

O=C(O)c1ccc(S(=O)(=O)Nc2cccc(Cl)c2F)o1 [CA289]
inhibition at 1.25 µM [1]: 1.57%
inhibition at 1.25 µM [2]: -1.23%

O=C(O)c1ccc2c(c1)OCO2 [CA083]
inhibition at 1.25 µM [1]: -4.98%
inhibition at 1.25 µM [2]: -14.2%

O=C(O)c1cccc(S(=O)(=O)NC2CC2)c1 [CA143]
inhibition at 1.25 µM [1]: 5.82%
inhibition at 1.25 µM [2]: 3.07%

O=C1CC(C(=O)O)NC(=O)N1 (centres unmarked) [CA075]
inhibition at 1.25 µM [1]: -4.58%
inhibition at 1.25 µM [2]: -15.1%

O=C(O)c1cccc(B(O)O)c1 [CA057]
inhibition at 1.25 µM [1]: -5.9%
inhibition at 1.25 µM [2]: -16.2%

O=C(O)c1cccnc1Oc1ccccc1Br [CA395]
inhibition at 1.25 µM [1]: -7.15%
inhibition at 1.25 µM [2]: -4.5%

O=C(O)C1CCCCN1S(=O)(=O)c1ccc(Br)s1 (centres unmarked) [CA459]
inhibition at 1.25 µM [1]: -0.93%
inhibition at 1.25 µM [2]: -2.17%

CNc1ccc(C(=O)O)cc1 [CA052]
inhibition at 1.25 µM [1]: -7.36%
inhibition at 1.25 µM [2]: -19.1%

CCn1nccc1-c1cc(C(=O)O)no1 [CA368]
inhibition at 1.25 µM [1]: 0.71%
inhibition at 1.25 µM [2]: 2.58%

O=C(O)CCc1ccc(O)cc1 [CA051]
inhibition at 1.25 µM [1]: -3.68%
inhibition at 1.25 µM [2]: -16.6%

O=C(O)Cc1ccc(-n2cccc2)cc1 [CA391]
inhibition at 1.25 µM [1]: -10.9%
inhibition at 1.25 µM [2]: 63.9%
inhibition of mUSP18 by individual CA's and coupling reagents (screened with and without DIC/HOBt): could inhibit mUSP18

O=C(O)CC(O)(c1nccn1Cc1ccccc1)C(F)(F)F (centres unmarked) [CA113]
inhibition at 1.25 µM [1]: 9.19%
inhibition at 1.25 µM [2]: 16.2%

Cc1ccccc1-n1cc(C(=O)O)cn1 [CA429]
inhibition at 1.25 µM [1]: -5.24%
inhibition at 1.25 µM [2]: 4.15%

Cc1ccc(Oc2ccc(C(=O)O)nc2)cc1 [CA398]
inhibition at 1.25 µM [1]: -2.93%
inhibition at 1.25 µM [2]: 2.57%

Cc1noc(C)c1S(=O)(=O)N1CCC(C(=O)O)CC1 [CA282]
inhibition at 1.25 µM [1]: 10.4%
inhibition at 1.25 µM [2]: -1.35%

CN1CCN(C(=O)[1C@@H]2[1C@@H](C(=O)O)C2(C)C)CC1 [CA273]
inhibition at 1.25 µM [1]: 5.18%
inhibition at 1.25 µM [2]: 5.09%

O=C(O)c1cccc(C(=O)N2CCCC2)n1 [CA369]
inhibition at 1.25 µM [1]: 0.72%
inhibition at 1.25 µM [2]: 1.39%

COc1ccc(C(=O)O)cc1S(=O)(=O)NCCCN1CCOCC1 [CA326]
inhibition at 1.25 µM [1]: -1.48%
inhibition at 1.25 µM [2]: -1.62%

Cc1ccc(S(=O)(=O)NCCc2ccc(F)cc2)cc1C(=O)O [CA330]
inhibition at 1.25 µM [1]: 11.3%
inhibition at 1.25 µM [2]: -0.35%

O=C(O)c1cc(C2CC2)n[nH]1 [CA293]
inhibition at 1.25 µM [1]: 0.33%
inhibition at 1.25 µM [2]: 14.3%

Cc1nc(-c2c(C)c(C)nn(C)c2=O)sc1C(=O)O [CA153]
inhibition at 1.25 µM [1]: 1.24%
inhibition at 1.25 µM [2]: 3.87%

O=C(O)c1cccc2c1-c1ccccc1C2 [CA038]
inhibition at 1.25 µM [1]: 6.69%
inhibition at 1.25 µM [2]: -7.2%

Cc1cc(OCC(=O)O)ccc1C(C)C [CA006]
inhibition at 1.25 µM [1]: -6.56%
inhibition at 1.25 µM [2]: -10.7%

Cn1cc(-c2nc(C(=O)O)cs2)cn1 [CA442]
inhibition at 1.25 µM [1]: -4.05%
inhibition at 1.25 µM [2]: -2.36%
